Measurements from patent US7507743B2, “Substituted 8′-pyridinyl-dihydrospiro-[cycloalkyl]-pyrimido[1,2-a] pyrimidin-6-one and 8′-pyrimidinyl-dihydrospiro-[cycloalkyl]-pyrimido[1,2-a] pyrimidin-6-one derivatives” (Sanofi-Aventis, priority 2003, dated 2009).
Counter-ions that a name gives are not always drawn.

melting point [°C] | SMILES
219 to 221 | O=c1cc(-c2ccncc2)nc2n1CCC1(CC1)N2C[C@@H](O)c1ccccc1 (as salt: hydrochloride) [compound No. 1, 1′-[(2S)-2-Hydroxy-2-phenylethyl]-8′-pyridin-4-yl-3′,4′-dihydrospiro[cyclopropane-1,2′-pyrimido[1,2-a]pyrimidin]-6′(1′H)-one]
221 to 223 | O=c1cc(-c2ccncc2)nc2n1CCC1(CCCC1)N2C[C@@H](O)c1ccccc1 (as salt: hydrochloride) [compound 3, 1′-[(2S)-2-Hydroxy-2-phenylethyl]-8′-pyridin-4-yl-3′,4′-dihydrospiro-[cyclopentane-1,2′-pyrimido[1,2-a]pyrimidin]-6′(1′H)-one]
157 to 158 | O=c1cc(-c2ccncn2)nc2n1CCC1(CCCC1)N2C[C@@H](O)c1ccccc1 [compound 4, 1′-[(2S)-2-Hydroxy-2-phenylethyl]-8′-pyrimidin-4-yl-3′,4′-dihydrospiro-[cyclopentane-1,2′-pyrimido[1,2-a]pyrimidin]-6′(1′H)-one]
208 to 210 | O=c1cc(-c2ccncc2)nc2n1CCC1(CCCC1)N2CCc1ccccc1 (as salt: hydrochloride) [compound 20, 1′-(phenylethyl)-8′-pyridin-4-yl-3′,4′-dihydrospiro-[cyclopentane-1,2′-pyrimido[1,2-a]pyrimidin]-6′(1′H)-one]
191 to 193 | O=c1cc(-c2ccncn2)nc2n1CCC1(CCCC1)N2Cc1ccccc1 [compound 16, 1′-(phenylmethyl)-8′-pyrimidin-4-yl-3′,4′-dihydrospiro-[cyclopentane-1,2′-pyrimido[1,2-a]pyrimidin]-6′(1′H)-one]
218 to 220 | O=c1cc(-c2ccncc2)nc2n1CCC1(CCC1)N2C[C@H](O)c1ccccc1 (as salt: hydrochloride) [compound 13, 1′-[(2R)-2-Hydroxy-2-phenylethyl]-8′-pyridin-4-yl-3′,4′-dihydrospiro-[cyclobutane-1,2′-pyrimido[1,2-a]pyrimidin]-6′(1′H)-one]
190 to 191 | O=c1cc(-c2ccncn2)nc2n1CCC1(CCCC1)N2CCc1ccccc1 [compound 24, 1′-(phenylethyl)-8′-pyrimidin-4-yl-3′,4′-dihydrospiro-[cyclopentane-1,2′-pyrimido[1,2-a]pyrimidin]-6′(1′H)-one]
242 to 244 | O=C(CN1c2nc(-c3ccncc3)cc(=O)n2CCC12CCC2)c1ccccc1 (as salt: hydrochloride) [compound 9, 1′-(2-Oxo-2-phenylethyl)-8′-pyridin-4-yl-3′,4′-dihydrospiro[cyclobutane-1,2′-pyrimido[1,2-a]pyrimidin]-6′(1′H)-one]
233 to 235 | O=c1cc(-c2ccncc2)nc2n1CCC1(CC1)N2Cc1ccccc1 (as salt: hydrochloride) [compound 17, 1′-(phenylmethyl)-8′-pyridin-4-yl-3′,4′-dihydrospiro-[cyclopropane-1,2′-pyrimido[1,2-a]pyrimidin]-6′(1′H)-one]
194 to 196 | O=C(CN1c2nc(-c3ccncn3)cc(=O)n2CCC12CCCC2)c1ccccc1 [compound 6, 1′-[2-Oxo-2-phenylethyl]-8′-pyrimidin-4-yl-3′,4′-dihydrospiro-[cyclopentane-1,2′-pyrimido[1,2-a]pyrimidin]-6′(1′H)-one]
221 to 222 | O=c1cc(-c2ccncc2)nc2n1CCC1(CCCC1)N2C[C@H](O)c1ccccc1 (as salt: hydrochloride) [compound 15, 1′-[(2R)-2-Hydroxy-2-phenylethyl]-8′-pyridin-4-yl-3′,4′-dihydrospiro-[cyclopentane-1,2′-pyrimido[1,2-a]pyrimidin]-6′(1′H)-one]
182 to 184 | O=c1cc(-c2ccncn2)nc2n1CCC1(CCC1)N2C[C@H](O)c1ccccc1 [compound 12, 1′-[(2R)-2-Hydroxy-2-phenylethyl]-8′-pyrimidin-4-yl-3′,4′-dihydrospiro-[cyclobutane-1,2′-pyrimido[1,2-a]pyrimidin]-6′(1′H)-one]
161 to 162 | O=C(CN1c2nc(-c3ccncc3)cc(=O)n2CCC12CCCC2)c1ccccc1 (as salt: hydrochloride) [compound 7, 1′-(2-Oxo-2-phenylethyl)-8′-pyridin-4-yl-3′,4′-dihydrospiro[cyclopentane-1,2′-pyrimido[1,2-a]pyrimidin]-6′(1′H)-one]
224 to 225 | O=c1cc(-c2ccncc2)nc2n1CCC1(CC1)N2CCc1ccccc1 (as salt: hydrochloride) [compound 22, 1′-(phenylethyl)-8′-pyridin-4-yl-3′,4′-dihydrospiro-[cyclopropane-1,2′-pyrimido[1,2-a]pyrimidin]-6′(1′H)-one]
149 to 150 | O=c1cc(-c2ccncn2)nc2n1CCC1(CCC1)N2Cc1ccccc1 [compound 14, 1′-(phenylmethyl)-8′-pyrimidin-4-yl-3′,4′-dihydrospiro-[cyclobutane-1,2′-pyrimido[1,2-a]pyrimidin]-6′(1′H)-one]
116 to 167 | O=c1cc(-c2ccncn2)nc2n1CCC1(CCC1)N2CCc1ccccc1 [compound 23, 1′-(phenylethyl)-8′-pyrimidin-4-yl-3′,4′-dihydrospiro-[cyclobutane-1,2′-pyrimido[1,2-a]pyrimidin]-6′(1′H)-one]
232 to 234 | O=C(CN1c2nc(-c3ccncc3)cc(=O)n2CCC12CC2)c1ccccc1 (as salt: hydrochloride) [compound 2, 1′-(2-Oxo-2-phenylethyl)-8′-pyridin-4-yl-3′,4′-dihydrospiro[cyclopropane-1,2′-pyrimido[1,2-a]pyrimidin]-6′(1′H)-one]
227 to 228 | O=c1cc(-c2ccncc2)nc2n1CCC1(CCCC1)N2Cc1ccccc1 (as salt: hydrochloride) [compound 19, 1′-(phenylmethyl)-8′-pyridin-4-yl-3′,4′-dihydrospiro-[cyclopentane-1,2′-pyrimido[1,2-a]pyrimidin]-6′(1′H)-one]
155 to 156 | O=c1cc(-c2ccncn2)nc2n1CCC1(CCCC1)N2C[C@H](O)c1ccccc1 [compound 5, 1′-[(2R)-2-Hydroxy-2-phenylethyl]-8′-pyrimidin-4-yl-3′,4′-dihydrospiro-[cyclopentane-1,2′-pyrimido[1,2-a]pyrimidin]-6′(1′H)-one]
207 to 208 | O=C(CN1c2nc(-c3ccncn3)cc(=O)n2CCC12CCC2)c1ccccc1 [compound No. 10, 1′-(2-Oxo-2-phenylethyl)-8′-pyrimidin-4-yl-3′,4′-dihydrospiro[cyclobutane-1,2′-pyrimido[1,2-a]pyrimidine]-6′(1′H)-one]
186 to 187 | O=c1cc(-c2ccncn2)nc2n1CCC1(CCC1)N2C[C@@H](O)c1ccccc1 [compound 11, 1′-[(2S)-2-Hydroxy-2-phenylethyl]-8′-pyrimidin-4-yl-3′,4′-dihydrospiro-[cyclobutane-1,2′-pyrimido[1,2-a]pyrimidin]-6′(1′H)-one]
214 to 216 | O=c1cc(-c2ccncc2)nc2n1CCC1(CCC1)N2C[C@@H](O)c1ccccc1 (as salt: hydrochloride) [compound 8, 1′-[(2S)-2-Hydroxy-2-phenylethyl]-8′-pyridin-4-yl-3′,4′-dihydrospiro-[cyclobutane-1,2′-pyrimido[1,2-a]pyrimidin]-6′(1′H)-one]
213 to 215 | O=c1cc(-c2ccncc2)nc2n1CCC1(CCC1)N2Cc1ccccc1 (as salt: hydrochloride) [compound 18, 1′-(phenylmethyl)-8′-pyridin-4-yl-3′,4′-dihydrospiro-[cyclobutane-1,2′-pyrimido[1,2-a]pyrimidin]-6′(1′H)-one]
210 to 211 | O=c1cc(-c2ccncc2)nc2n1CCC1(CCC1)N2CCc1ccccc1 (as salt: hydrochloride) [compound 21, 1′-(phenylethyl)-8′-pyridin-4-yl-3′,4′-dihydrospiro-[cyclobutane-1,2′-pyrimido[1,2-a]pyrimidin]-6′(1′H)-one]
